Measured values: patent publication US11298367B2, “Prodrugs of substituted triazole derivatives and uses thereof” (Bayer Aktiengesellschaft, priority 2017, dated 2022)
Values after ≈ are worked out from the molar mass of the structure shown. Where two headings read alike, the source gives them in different places.

Experiments:
[1] = Solubility; format: physicochemical; settings: 24 h room temperature, max. 500 μg/ml; for solubility at 24 h: thermodynamic from solid
Description: For each substance 0.5-0.6 mg are weighed exactly. In each case, sufficient medium is added to the sample in such a way that a concentration of c=500 μg/ml is obtained. This sample solution is shaken for 24 h at room temperature and 1400 rpm.
A further sample weight of 0.5-0.6 mg is required for the DMSO calibration solution. This sample is filled with DMSO to a concentration of c=600 μg/ml. Two calibration solutions are prepared from this stock solution. In a 2 ml HPLC vial, 1000 μl of DMSO are initially introduced and 34.4 μl of the stock solution are pipetted (c=20 µg/ml). […] of this solution (c=20 μg/ml) are placed in a further 2 ml HPLC vial containing 500 μl of DMSO (c=2.5 μg/ml).
After shaking the test solutions, 230 μl of the supernatant are transferred into a centrifuge tube and centrifuged at 42 000 rpm (223 000 g) for 30 min. 180 μl of the supernatant are then taken and each diluted with DMSO (1:5 sample 1; 1:100 sample 2), and transferred to HPLC vials. The two calibration solutions and the dilute sample solutions are analyzed by HPLC. Quantification is performed over the corresponding peak areas.
Distilled water; trifluoroacetic acid (Merck; 1.08262.0100); acetonitrile (HPLC grade); DMSO (Merck; 8.02912.2500).
Fluka buffer, Order No. 33643 (11.76 g citric acid, 2.57 g sodium chloride and 2.72 g sodium hydroxide).
Fluka buffer, Order No. 33646 (3.52 g potassium dihydrogenphosphate, 7.26 g sodium hydrogen phosphate).
Solution of 6.18 g sodium chloride and 3.96 g sodium dihydrogen phosphate in 1 L distilled water, adjust with 1M aqueous sodium hydroxide solution to pH 7.4.
0.6057 g TRIS was dissolved in 95 ml water, adjust to pH 8.5 with aqueous hydrochloric acid, fill with water until 100 ml volume is reached.

[2] = molecular target: T1, human V1a receptor (Homo sapiens, UniProt P37288); assay: Cellular in vitro assay for vasopressin receptor activity (V1a, aequorin luminescence); format: cell-based; settings: selectivity ratio hV2/hV1a
T1 construct: expressed in transfected cells; host or cells: CHO K1 (Chinese hamster ovary), also stably transfected with a modified aequorin
Description: B-1. Cellular In Vitro Assay for Determining Vasopressin Receptor Activity
The identification of agonists and antagonists of the V1a and V2 vasopressin receptors from humans, rats and dogs as well as the quantification of the activity of the compounds of the invention is carried out using recombinant cell lines. These cell lines originally derive from a hamster's ovary epithelial cell (Chinese Hamster Ovary, CHO K1, ATCC: American Type Culture Collection, Manassas, Va. 20108, USA). The test cell lines constitutively express the human, rat or dog V1a or V2 receptors. In case of the Gaq-coupled V1a receptors, cells are also stably transfected with a modified form of the calcium-sensitive photoproteins aequorin (human and rat V1a) or obelin (dog V1a), which, after reconstitution with the cofactor coelenterazine, emit light when there are increases in free calcium concentrations [Rizzuto R, Simpson A W, Brini M, Pozzan T, Nature 358, 325-327 (1992); Illarionov B A, Bondar V S, Illarionova V A, Vysotski E S, Gene 153 (2), 273-274 (1995)]. The resulting vasopressin receptor cells react to stimulation of the recombinantly expressed Via receptors by intracellular release of calcium ions, which can be quantified by the resulting photoprotein luminescence. The Gs-coupled V2 receptors are stably transfected into cell lines expressing the gene for firefly luciferase under control of a CRE-responsible promoter. Activation of V2 receptors induces the activation of the CRE-responsive promoter via cAMP increase, thereby inducing the expression of firefly luciferase. The light emitted by photoproteins of V1a cell lines as well as the light emitted by firefly luciferase of V2 cell lines corresponds to the activation or inhibition of the respective vasopressin receptor. The bioluminescence of the cell lines is detected using a suitable luminometer [Milligan G, Marshall F, Rees S, Trends in Pharmacological Sciences 17, 235-237 (1996)].
Vasopressin V1a Receptor Cell Lines:
On the day before the assay, the cells are plated out in culture medium (DMEM/F12, 2% FCS, 2 mM glutamine, 10 mM HEPES, 5 μg/ml coelenterazine) in 384-well microtiter plates and kept in a cell incubator (96% humidity, 5% v/v CO2, 37C). On the day of the assay, test compounds in various concentrations are placed for 10 minutes in the wells of the microtiter plate before the agonist [Arg^8]-vasopressin at EC50 concentration is added. The resulting light signal is measured immediately in a luminometer.
Table 1A below lists individual IC50 values for the compounds of the invention (including racemic mixtures as well as separated enantiomers) that were obtained from cell lines transfected with the human V1a or V2 receptor. This means these IC50 values are the values for the prodrug and not for the underlying respective drug as the prodrug is mainly stable under the assay conditions.

[3] = molecular target: T1, human V1a receptor; assay: Cellular in vitro assay for verification of prodrug conversion into drug (with/without alkaline phosphatase); format: cell-based; settings: human V1a CHO cells
Description: B-4. Cellular In Vitro Assay for Verification of Prodrug Conversion into Drug
To verify the conversion of prodrugs into the respective drugs, the prodrugs are incubated with and without alkaline phosphatase. Cleavage of the phosphate moiety by alkaline phosphatase converts the prodrug into the underlying respective drug [Coleman J. E., Annu. Rev. Biophys. Biomol. Struct. 1992, 21, 441-483]. As prodrug and underlying respective drug show different IC50 values, the value of the prodrug after alkaline phosphatase treatment resembles the IC50 of the respective drug. The determination of IC50 values of compounds of the invention at the human V1a receptor is carried out using a recombinant cell line. The cell line originally derives from a hamster's ovary epithelial cell (Chinese Hamster Ovary, CHO K1, ATCC: American Type Culture Collection, Manassas, Va. 20108, USA). The test cell line constitutively expresses the human V1a receptor. Cells are also stably transfected with a modified form of the calcium-sensitive photoprotein aequorin which, after reconstitution with the cofactor coelenterazine, emits light upon increase in free calcium concentration [Rizzuto R, Simpson A W, Brini M, Pozzan T, Nature 358, 325-327 (1992); Illarionov B A, Bondar V S, Illarionova V A, Vysotski E S, Gene 153 (2), 273-274 (1995)]. The resulting vasopressin receptor cell reacts to stimulation of the recombinantly expressed V1a receptor by intracellular release of calcium ions, which can be quantified by the resulting luminescence of photoprotein. The bioluminescence of the cell line is detected using a suitable luminometer [Milligan G, Marshall F, Rees S, Trends in Pharmacological Sciences 17, 235-237 (1996)].
On the day before the assay, the cells are seeded in culture medium (DMEM/F12, 2% FCS, 2 mM glutamine, 10 mM HEPES, 5 μg/ml coelenterazine) in 384-well microtiter plates and kept in a cell incubator (96% humidity, 5% v/v CO2, 37C). On the day of the assay, 100 μl of test compounds at a concentration of 100 μM are incubated for 15 minutes with 500 units alkaline phosphatase at 37° C. in tyrode buffer (20 mM HEPES, 130 mM NaCl, 5 mM KCl, 5 mM NaHCO3, 2 mM MgCl2, pH 7,4). After incubation compounds are immediately diluted and placed for 10 minutes at 37° C. on the before seeded V1a cells. For detection of antagonistic activity of the compounds [Arg^8]-vasopressin at EC50 concentration is added and the resulting light signal is measured immediately in a luminometer.

[4] = Tris buffer pH 8.5, pH 8.5, aqueous buffer, pH = 8.5 Tris buffer
[5] = pre-incubation 15 min with 500 units alkaline phosphatase at 37° C., read-out: IC50 with AP
[6] = without alkaline phosphatase, read-out: IC50 without AP

T1 sequence (P37288 whole entry): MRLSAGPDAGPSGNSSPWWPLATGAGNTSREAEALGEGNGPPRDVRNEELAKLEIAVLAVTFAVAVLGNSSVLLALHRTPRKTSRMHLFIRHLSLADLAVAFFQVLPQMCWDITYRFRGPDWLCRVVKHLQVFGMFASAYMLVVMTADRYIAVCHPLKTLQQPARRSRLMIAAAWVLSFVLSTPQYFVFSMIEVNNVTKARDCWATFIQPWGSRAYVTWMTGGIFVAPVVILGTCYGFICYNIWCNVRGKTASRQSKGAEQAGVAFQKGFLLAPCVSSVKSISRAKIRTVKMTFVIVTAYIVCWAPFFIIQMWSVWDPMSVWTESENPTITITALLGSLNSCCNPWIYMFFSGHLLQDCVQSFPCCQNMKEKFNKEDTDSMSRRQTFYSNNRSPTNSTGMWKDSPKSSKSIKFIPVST

| solubility at 24 h [1, 4] | Solubility ([1]; pH = 4 citrate buffer) | Solubility ([1]; pH = 7.0 buffer) | ratio IC50 hV2/hV1a [2] | IC50 [3, 5] | IC50 [3, 6] | solubility at 24 h ([1]; citrate buffer pH 4, pH 4, aqueous buffer, pH = 4 citrate buffer) | solubility at 24 h ([1]; phosphate buffer pH 7, pH 7, aqueous buffer, pH = 7.0 buffer) | SMILES |
| --- | --- | --- | --- | --- | --- | --- | --- | --- |
| 4.3 µg/mL (≈ 7.47 µM) | not detectable | not detectable | 41.4 | 1.35 nM | 1.35 nM | – | – | NC(=O)c1nc(Cn2nc(-c3ccc(Cl)cc3)n(C[C@H](O)C(F)(F)F)c2=O)nn1-c1ccccc1C(F)(F)F [Example 6A, 3-({3-(4-Chlorophenyl)-5-oxo-4-[(2S)-3,3,3-trifluoro-2-hydroxypropyl]-4,5-dihydro-1H-1,2,4-triazol-1-yl}methyl)-1-[2-(trifluoromethyl)phenyl]-1H-1,2,4-triazole-5-carboxamide] |
| 4 µg/mL (≈ 7.36 µM) | – | – | 38.2 | 1.1 nM | 1.7 nM | 5.9 µg/mL (≈ 10.9 µM) | 2.8 µg/mL (≈ 5.15 µM) | NC(=O)c1nc(Cn2nc(-c3ccc(Cl)cc3)n(C[C@H](O)C(F)(F)F)c2=O)nn1-c1ncccc1Cl [Example 8A, 3-({3-(4-Chlorophenyl)-5-oxo-4-[(2S)-3,3,3-trifluoro-2-hydroxypropyl]-4,5-dihydro-1H-1,2,4-triazol-1-yl}methyl)-1-(3-chloropyridin-2-yl)-1H-1,2,4-triazole-5-carboxamide] |
